{"source": "ChEMBL document CHEMBL1201861", "about": "“Genomics of Drug Sensitity in Cancer screening data, Wellcome Trust Sanger Institute”", "experiment_in_all_cases": "cells", "key": {"[1]": {"tested_on": "NCI-H1838", "type": "functional, cell-based, Homo sapiens", "details": "Homo sapiens, NCI-H1838", "description": "SANGER: Inhibition of human NCI-H1838 cell growth in a cell viability assay."}, "[2]": {"tested_on": "GAK", "type": "functional, cell-based, Homo sapiens", "details": "Homo sapiens, GAK", "description": "SANGER: Inhibition of human GAK cell growth in a cell viability assay."}, "[3]": {"tested_on": "EKVX", "type": "functional, cell-based, Homo sapiens", "details": "Homo sapiens, EKVX", "description": "SANGER: Inhibition of human EKVX cell growth in a cell viability assay."}, "[4]": {"tested_on": "U-87 MG", "type": "functional, cell-based, Homo sapiens, U-87MG ATCC", "details": "Homo sapiens, U-87 MG", "description": "SANGER: Inhibition of human U-87-MG cell growth in a cell viability assay."}, "[5]": {"tested_on": "SW982", "type": "functional, cell-based, Homo sapiens", "details": "Homo sapiens, SW982", "description": "SANGER: Inhibition of human SW982 cell growth in a cell viability assay."}, "[6]": {"tested_on": "ES5", "type": "functional, cell-based, Homo sapiens", "details": "Homo sapiens, ES5", "description": "SANGER: Inhibition of human ES5 cell growth in a cell viability assay."}, "[7]": {"tested_on": "MZ7-mel", "type": "functional, cell-based, Homo sapiens", "details": "Homo sapiens, MZ7-mel", "description": "SANGER: Inhibition of human MZ7-mel cell growth in a cell viability assay."}, "[8]": {"tested_on": "NB69", "type": "functional, cell-based, Homo sapiens", "details": "Homo sapiens, NB69", "description": "SANGER: Inhibition of human NB69 cell growth in a cell viability assay."}, "[9]": {"tested_on": "IST-SL1", "type": "functional, cell-based, Homo sapiens", "details": "Homo sapiens, IST-SL1", "description": "SANGER: Inhibition of human IST-SL1 cell growth in a cell viability assay."}, "[10]": {"tested_on": "TE-5", "type": "functional, cell-based, Homo sapiens", "details": "Homo sapiens, TE-5", "description": "SANGER: Inhibition of human TE-5 cell growth in a cell viability assay."}, "[11]": {"tested_on": "MFM-223", "type": "functional, cell-based, Homo sapiens", "details": "Homo sapiens, MFM-223", "description": "SANGER: Inhibition of human MFM-223 cell growth in a cell viability assay."}, "[12]": {"tested_on": "NB12", "type": "functional, cell-based, Homo sapiens", "details": "Homo sapiens, NB12", "description": "SANGER: Inhibition of human NB12 cell growth in a cell viability assay."}, "[13]": {"tested_on": "ES7", "type": "functional, cell-based, Homo sapiens", "details": "Homo sapiens, ES7", "description": "SANGER: Inhibition of human ES7 cell growth in a cell viability assay."}, "[14]": {"tested_on": "TGBC24TKB", "type": "functional, cell-based, Homo sapiens", "details": "Homo sapiens, TGBC24TKB", "description": "SANGER: Inhibition of human TGBC24TKB cell growth in a cell viability assay."}, "[15]": {"tested_on": "SCC-15", "type": "functional, cell-based, Homo sapiens", "details": "Homo sapiens, SCC-15", "description": "SANGER: Inhibition of human SCC-15 cell growth in a cell viability assay."}, "[16]": {"tested_on": "SW872", "type": "functional, cell-based, Homo sapiens", "details": "Homo sapiens, SW872", "description": "SANGER: Inhibition of human SW872 cell growth in a cell viability assay."}, "[17]": {"tested_on": "TE-8", "type": "functional, cell-based, Homo sapiens", "details": "Homo sapiens, TE-8", "description": "SANGER: Inhibition of human TE-8 cell growth in a cell viability assay."}, "[18]": {"tested_on": "RCC10RGB", "type": "functional, cell-based, Homo sapiens", "details": "Homo sapiens, RCC10RGB", "description": "SANGER: Inhibition of human RCC10RGB cell growth in a cell viability assay."}, "[19]": {"tested_on": "SH-4", "type": "functional, cell-based, Homo sapiens", "details": "Homo sapiens, SH-4", "description": "SANGER: Inhibition of human SH-4 cell growth in a cell viability assay."}, "[20]": {"tested_on": "8-MG-BA", "type": "functional, cell-based, Homo sapiens", "details": "Homo sapiens, 8-MG-BA", "description": "SANGER: Inhibition of human 8-MG-BA cell growth in a cell viability assay."}, "[21]": {"tested_on": "LB771-HNC", "type": "functional, cell-based, Homo sapiens", "details": "Homo sapiens, LB771-HNC", "description": "SANGER: Inhibition of human LB771-HNC cell growth in a cell viability assay."}, "[22]": {"tested_on": "SF-268", "type": "functional, cell-based, Homo sapiens", "details": "Homo sapiens, SF-268", "description": "SANGER: Inhibition of human SF268 cell growth in a cell viability assay."}, "[23]": {"tested_on": "D-392MG", "type": "functional, cell-based, Homo sapiens", "details": "Homo sapiens, D-392MG"}, "[24]": {"tested_on": "LB831-BLC", "type": "functional, cell-based, Homo sapiens", "details": "Homo sapiens, LB831-BLC", "description": "SANGER: Inhibition of human LB831-BLC cell growth in a cell viability assay."}, "[25]": {"tested_on": "LS-1034", "type": "functional, cell-based, Homo sapiens", "details": "Homo sapiens, LS-1034", "description": "SANGER: Inhibition of human LS-1034 cell growth in a cell viability assay."}, "[26]": {"tested_on": "DJM-1", "type": "functional, cell-based, Homo sapiens", "details": "Homo sapiens, DJM-1", "description": "SANGER: Inhibition of human DJM-1 cell growth in a cell viability assay."}, "[27]": {"tested_on": "ES4", "type": "functional, cell-based, Homo sapiens", "details": "Homo sapiens, ES4", "description": "SANGER: Inhibition of human ES4 cell growth in a cell viability assay."}, "[28]": {"tested_on": "ETK-1", "type": "functional, cell-based, Homo sapiens", "details": "Homo sapiens, ETK-1", "description": "SANGER: Inhibition of human ETK-1 cell growth in a cell viability assay."}, "[29]": {"tested_on": "HD-MY-Z", "type": "functional, cell-based, Homo sapiens", "details": "Homo sapiens, HD-MY-Z", "description": "SANGER: Inhibition of human HD-MY-Z cell growth in a cell viability assay."}, "[30]": {"tested_on": "NOS-1", "type": "functional, cell-based, Homo sapiens", "details": "Homo sapiens, NOS-1", "description": "SANGER: Inhibition of human NOS-1 cell growth in a cell viability assay."}, "[31]": {"tested_on": "EW-11", "type": "functional, cell-based, Homo sapiens", "details": "Homo sapiens, EW-11", "description": "SANGER: Inhibition of human EW-11 cell growth in a cell viability assay."}, "[32]": {"tested_on": "NB6", "type": "functional, cell-based, Homo sapiens", "details": "Homo sapiens, NB6", "description": "SANGER: Inhibition of human NB6 cell growth in a cell viability assay."}, "[33]": {"tested_on": "LB2241-RCC", "type": "functional, cell-based, Homo sapiens", "details": "Homo sapiens, LB2241-RCC", "description": "SANGER: Inhibition of human LB2241-RCC cell growth in a cell viability assay."}, "[34]": {"tested_on": "SW 962", "type": "functional, cell-based, Homo sapiens", "details": "Homo sapiens, SW 962", "description": "SANGER: Inhibition of human SW962 cell growth in a cell viability assay."}, "[35]": {"tested_on": "P30-OHK", "type": "functional, cell-based, Homo sapiens", "details": "Homo sapiens, P30-OHK", "description": "SANGER: Inhibition of human P30-OHK cell growth in a cell viability assay."}, "[36]": {"tested_on": "A4-Fuk", "type": "functional, cell-based, Homo sapiens", "details": "Homo sapiens, A4-Fuk", "description": "SANGER: Inhibition of human A4-Fuk cell growth in a cell viability assay."}, "[37]": {"tested_on": "MEG-01", "type": "functional, cell-based, Homo sapiens", "details": "Homo sapiens, MEG-01", "description": "SANGER: Inhibition of human MEG-01 cell growth in a cell viability assay."}, "[38]": {"tested_on": "SNB-75", "type": "functional, cell-based, Homo sapiens", "details": "Homo sapiens, SNB-75", "description": "SANGER: Inhibition of human SNB75 cell growth in a cell viability assay."}, "[39]": {"tested_on": "MOLT-4", "type": "functional, cell-based, Homo sapiens", "details": "Homo sapiens, MOLT-4", "description": "SANGER: Inhibition of human MOLT-4 cell growth in a cell viability assay."}, "[40]": {"tested_on": "HL-60", "type": "functional, cell-based, Homo sapiens", "details": "Homo sapiens, HL-60", "description": "SANGER: Inhibition of human HL-60 cell growth in a cell viability assay."}, "[41]": {"tested_on": "NKM-1", "type": "functional, cell-based, Homo sapiens", "details": "Homo sapiens, NKM-1", "description": "SANGER: Inhibition of human NKM-1 cell growth in a cell viability assay."}, "[42]": {"tested_on": "BV-173", "type": "functional, cell-based, Homo sapiens", "details": "Homo sapiens, BV-173", "description": "SANGER: Inhibition of human BV-173 cell growth in a cell viability assay."}, "[43]": {"tested_on": "Mo", "type": "functional, cell-based, Homo sapiens", "details": "Homo sapiens, Mo", "description": "SANGER: Inhibition of human Mo-T cell growth in a cell viability assay."}, "[44]": {"tested_on": "MHH-PREB-1", "type": "functional, cell-based, Homo sapiens", "details": "Homo sapiens, MHH-PREB-1", "description": "SANGER: Inhibition of human MHH-PREB-1 cell growth in a cell viability assay."}, "[45]": {"tested_on": "HC-1", "type": "functional, cell-based, Homo sapiens", "details": "Homo sapiens, HC-1", "description": "SANGER: Inhibition of human HC-1 cell growth in a cell viability assay."}, "[46]": {"tested_on": "NCI-H446", "type": "functional, cell-based, Homo sapiens", "details": "Homo sapiens, NCI-H446", "description": "SANGER: Inhibition of human NCI-H446 cell growth in a cell viability assay."}, "[47]": {"tested_on": "L-363", "type": "functional, cell-based, Homo sapiens", "details": "Homo sapiens, L-363", "description": "SANGER: Inhibition of human L-363 cell growth in a cell viability assay."}, "[48]": {"tested_on": "697", "type": "functional, cell-based, Homo sapiens", "details": "Homo sapiens", "description": "SANGER: Inhibition of human 697 cell growth in a cell viability assay."}, "[49]": {"tested_on": "HAL-01", "type": "functional, cell-based, Homo sapiens", "details": "Homo sapiens, HAL-01", "description": "SANGER: Inhibition of human HAL-01 cell growth in a cell viability assay."}, "[50]": {"tested_on": "MOLT-16", "type": "functional, cell-based, Homo sapiens", "details": "Homo sapiens, MOLT-16", "description": "SANGER: Inhibition of human MOLT-16 cell growth in a cell viability assay."}}, "note": "pIC50: −log10 of the molar value.", "data": [{"smiles": "CC(C)c1ccccc1Cc1cc(C(=O)Nc2ccc(S(=O)(=O)c3ccccc3C(C)(C)C)cc2)c(O)c(O)c1O", "values": [{"measurement": "pIC50", "setting": "[1]", "value": 5.67}, {"measurement": "pIC50", "setting": "[2]", "value": 5.69}, {"measurement": "pIC50", "setting": "[3]", "value": 5.15}, {"measurement": "pIC50", "setting": "[4]", "value": 7.08}, {"measurement": "pIC50", "setting": "[5]", "value": 6.96}, {"measurement": "pIC50", "setting": "[6]", "value": 6.05}, {"measurement": "pIC50", "setting": "[7]", "value": 5.76}, {"measurement": "pIC50", "setting": "[8]", "value": 6.06}, {"measurement": "pIC50", "setting": "[9]", "value": 6.36}, {"measurement": "pIC50", "setting": "[10]", "value": 6.05}, {"measurement": "pIC50", "setting": "[11]", "value": 6.07}, {"measurement": "pIC50", "setting": "[12]", "value": 6.87}, {"measurement": "pIC50", "setting": "[13]", "value": 6.57}, {"measurement": "pIC50", "setting": "[14]", "value": 6.64}, {"measurement": "pIC50", "setting": "[15]", "value": 6.65}, {"measurement": "pIC50", "setting": "[16]", "value": 7.23}, {"measurement": "pIC50", "setting": "[17]", "value": 6.89}, {"measurement": "pIC50", "setting": "[18]", "value": 4.86}, {"measurement": "pIC50", "setting": "[19]", "value": 6.64}, {"measurement": "pIC50", "setting": "[20]", "value": 6.81}, {"measurement": "pIC50", "setting": "[21]", "value": 6.78}, {"measurement": "pIC50", "setting": "[22]", "value": 6.57}, {"measurement": "pIC50", "setting": "[23]", "value": 5.85}, {"measurement": "pIC50", "setting": "[24]", "value": 6.13}, {"measurement": "pIC50", "setting": "[25]", "value": 5.87}, {"measurement": "pIC50", "setting": "[26]", "value": 6.28}, {"measurement": "pIC50", "setting": "[27]", "value": 6.29}, {"measurement": "pIC50", "setting": "[28]", "value": 6.10}, {"measurement": "pIC50", "setting": "[29]", "value": 6.40}, {"measurement": "pIC50", "setting": "[30]", "value": 6.63}, {"measurement": "pIC50", "setting": "[31]", "value": 6.36}, {"measurement": "pIC50", "setting": "[32]", "value": 5.60}, {"measurement": "pIC50", "setting": "[33]", "value": 6.83}, {"measurement": "pIC50", "setting": "[34]", "value": 6.42}]}, {"smiles": "OCCCNc1cc(-c2ccnc(Nc3cccc(Cl)c3)n2)ccn1", "values": [{"measurement": "pIC50", "setting": "[1]", "value": "< 6.59"}, {"measurement": "pIC50", "setting": "[35]", "value": "< 6.59"}, {"measurement": "pIC50", "setting": "[2]", "value": "< 6.59"}, {"measurement": "pIC50", "setting": "[3]", "value": "< 6.59"}, {"measurement": "pIC50", "setting": "[4]", "value": "< 6.59"}, {"measurement": "pIC50", "setting": "[5]", "value": 7.60}, {"measurement": "pIC50", "setting": "[6]", "value": "< 6.59"}, {"measurement": "pIC50", "setting": "[7]", "value": "< 6.59"}, {"measurement": "pIC50", "setting": "[8]", "value": "< 6.59"}, {"measurement": "pIC50", "setting": "[9]", "value": 6.83}, {"measurement": "pIC50", "setting": "[10]", "value": 7.04}, {"measurement": "pIC50", "setting": "[11]", "value": "< 6.59"}, {"measurement": "pIC50", "setting": "[36]", "value": 7.55}, {"measurement": "pIC50", "setting": "[37]", "value": 6.90}, {"measurement": "pIC50", "setting": "[38]", "value": 7.56}, {"measurement": "pIC50", "setting": "[39]", "value": "< 6.59"}, {"measurement": "pIC50", "setting": "[40]", "value": "< 6.59"}, {"measurement": "pIC50", "setting": "[13]", "value": "< 6.59"}, {"measurement": "pIC50", "setting": "[14]", "value": "< 6.59"}, {"measurement": "pIC50", "setting": "[41]", "value": 7.10}, {"measurement": "pIC50", "setting": "[42]", "value": 6.84}, {"measurement": "pIC50", "setting": "[43]", "value": "< 6.59"}, {"measurement": "pIC50", "setting": "[15]", "value": "< 6.59"}, {"measurement": "pIC50", "setting": "[44]", "value": 7.23}, {"measurement": "pIC50", "setting": "[16]", "value": 7.58}, {"measurement": "pIC50", "setting": "[45]", "value": 7.28}, {"measurement": "pIC50", "setting": "[17]", "value": 7.62}, {"measurement": "pIC50", "setting": "[18]", "value": 6.95}, {"measurement": "pIC50", "setting": "[19]", "value": "< 6.59"}, {"measurement": "pIC50", "setting": "[20]", "value": 7.25}, {"measurement": "pIC50", "setting": "[21]", "value": 6.79}, {"measurement": "pIC50", "setting": "[46]", "value": "< 6.59"}, {"measurement": "pIC50", "setting": "[22]", "value": 7.37}, {"measurement": "pIC50", "setting": "[47]", "value": 7.03}, {"measurement": "pIC50", "setting": "[24]", "value": 7.49}, {"measurement": "pIC50", "setting": "[25]", "value": 6.59}, {"measurement": "pIC50", "setting": "[26]", "value": "< 6.59"}, {"measurement": "pIC50", "setting": "[48]", "value": 7.71}, {"measurement": "pIC50", "setting": "[27]", "value": 7.45}, {"measurement": "pIC50", "setting": "[28]", "value": 7.86}, {"measurement": "pIC50", "setting": "[49]", "value": 7.18}, {"measurement": "pIC50", "setting": "[29]", "value": 7.22}, {"measurement": "pIC50", "setting": "[30]", "value": 7.71}, {"measurement": "pIC50", "setting": "[31]", "value": "< 6.59"}, {"measurement": "pIC50", "setting": "[50]", "value": "< 6.59"}, {"measurement": "pIC50", "setting": "[32]", "value": "< 6.59"}, {"measurement": "pIC50", "setting": "[33]", "value": "< 6.59"}, {"measurement": "pIC50", "setting": "[34]", "value": 7.35}]}]}
